Experiment [1] deals with T1, platelet ADP receptors (Homo sapiens, UniProt Q9H244).
T1 construct: endogenous in cells; host or cells: whole apyrase-washed human platelets (outdated from blood banks, or fresh)
Put plainly: ARB assay: inhibition of [3H]2-MeS-ADP binding to platelets. Particulars: IC50 class, [3H]2-MeS-ADP binding to whole human platelets. Here is the method: II. Inhibition of [^3H]2-MeS-ADP Binding to Platelets
Utilizing the second assay the potency of inhibition of such compounds with respect to [^3H]2-MeS-ADP binding to whole platelets is determined. [^3H]2-MeS-ADP binding experiments are routinely performed with outdated human platelets collected by standard procedures at hospital blood banks. Apyrase-washed outdated platelets are prepared as follows (all steps at room temperature, if not indicated otherwise):
Outdated platelet suspensions are diluted with 1 volume of CGS and platelets pelleted by centrifugation at 1900×g for 45 minutes. Platelet pellets are resuspended at 3-6×10^9 platelets/ml in CGS containing 1 U/ml apyrase (grade V, Sigma, St. Louis, Mo.) and incubated for 15 minutes at 37° C. After centrifugation at 730×g for 20 minutes, pellets are resuspended in Hepes-Tyrode's buffer containing 0.1% BSA (Sigma, St. Louis, Mo.) at a concentration of 6.66×10^8 platelets/ml. Binding experiments are performed after >45 minutes resting of the platelets.
Alternatively, binding experiments are performed with fresh human platelets prepared as described in I. (Inhibition of ADP-Mediated Platelet Aggregation in vitro), except that platelets are resuspended in Hepes-Tyrode's buffer containing 0.1% BSA (Sigma, St. Louis, Mo.) at a concentration of 6.66×10^8 platelets/ml. Very similar results are obtained with fresh and outdated platelets.
A platelet ADP receptor binding assay using the tritiated potent agonist ligand [^3H]2-MeS-ADP (Jantzen, H. M. et al. (1999) Thromb. Hemost. 81:111–117) has been adapted to the 96-well microtiter format. In an assay volume of 0.2 ml Hepes-Tyrode's buffer with 0.1% BSA and 0.6% DMSO, 1×10^8 apyrase-washed platelets are preincubated in 96-well flat bottom microtiter plates for 5 minutes with serial dilutions of test compounds before addition of 1 nM [^3H]2-MeS-ADP ([^3H]2-methylthioadenosine-5′-diphosphate, ammonium salt; specific activity 48–49 Ci/mmole, obtained by custom synthesis from Amersham Life Science, Inc., Arlington Heights, Ill., or NEN Life Science Products, Boston, Mass.). Total binding is determined in the absence of test compounds. Samples for nonspecific binding may contain 10^−5 M unlabelled 2-MeS-ADP (RBI, Natick, Mass.). After incubation for 15 minutes at room temperature, unbound radioligand is separated by rapid filtration and two washes with cold (4–8° C.) Binding Wash Buffer (10 mM Hepes pH 7.4, 138 mM NaCl) using a 96-well cell harvester (Minidisc 96, Skatron Instruments, Sterling, Va.) and 8×12 GF/C glassfiber filtermats (Printed Filtermat A, for 1450 Microbeta, Wallac Inc., Gaithersburg, Md.). The platelet-bound radioactivity on the filtermats is determined in a scintillation counter (Microbeta 1450, Wallac Inc., Gaithersburg, Md.). Specific binding is determined by […] binding, and specific binding in the presence of test compounds is expressed as % of specific binding in the absence of test compounds dilutions.

The test system of experiment [2] is ADP-induced human platelet aggregation. Briefly: PRP assay: inhibition of ADP-mediated platelet aggregation in vitro. Format: cell-based. Particulars: IC50 class. How it is done: I. Inhibition of ADP-Mediated Platelet Aggregation in vitro
The effect of testing the compound according to the invention on ADP-induced human platelet aggregation is preferably assessed in 96-well microtiter assay (see generally the procedures in Jantzen, H. M. et al. (1999) Thromb. Hemost. 81:111–117). Human venous blood is collected from healthy, drug-free volunteers into ACD (85 mM sodium citrate, 111 mM glucose, 71.4 mM citric acid) containing PGI2 (1.25 ml ACD containing 1.6 μM PGI2/10 ml blood; PGI2 was from Sigma, St. Louis, Mo.). Platelet-rich plasma (PRP) is prepared by centrifugation at 160×g for 20 minutes at room temperature. Washed platelets are prepared by centrifuging PRP for 10 minutes at 730×g and resuspending the platelet pellet in CGS (13 mM sodium citrate, 30 mM glucose, 120 mM NaCl; 2 ml CGS/10 ml original blood volume) containing 1 U/ml apyrase (grade V, Sigma, St. Louis, Mo.). After incubation at 37° C. for 15 minutes, the platelets are collected by centrifugation at 730×g for 10 minutes and resuspended at a concentration of 3×10^8 platelets/ml in Hepes-Tyrode's buffer (10 mM Hepes, 138 mM NaCl, 5.5 mM glucose, 2.9 mM KCl, 12 mM NaHCO3, pH 7.4) containing 0.1% bovine serum albumin, 1 mM CaCl2 and 1 mM MgCl2. This platelet suspension is kept >45 minutes at 37° C. before use in aggregation assays.
Inhibition of ADP-dependent aggregation is preferably determined in 96-well flat-bottom microtiter plates using a microtiter plate shaker and plate reader similar to the procedure described by Frantantoni et al., Am. J. Clin. Pathol. 94, 613 (1990). All steps are performed at room temperature. The total reaction volume of 0.2 ml/well includes in Hepes-Tyrodes buffer/0.1% BSA: 4.5×10^7 apyrase-washed platelets, 0.5 mg/ml human fibrinogen (American Diagnostica, Inc., Greenwich, Conn.), serial dilutions of test compounds (buffer for control wells) in 0.6% DMSO. After about 5 minutes preincubation at room temperature, ADP is added to a final concentration of 2 μM which induces submaximal aggregation. Buffer is added instead of ADP to one set of control wells (ADP^− control). The OD of the samples is then determined at 490 nm using a microtiter plate reader (Softmax, Molecular Devices, Menlo Park, Calif.) resulting in the 0 minute reading. The plates are then agitated for 5 min on a microtiter plate shaker and the 5 minute reading is obtained in the plate reader. Aggregation is calculated from the decrease of OD at 490 nm at t=5 minutes compared to t=0 minutes and is expressed as % of the decrease in the ADP control samples after correcting for changes in the unaggregated control samples.

T1 sequence (Q9H244 whole entry): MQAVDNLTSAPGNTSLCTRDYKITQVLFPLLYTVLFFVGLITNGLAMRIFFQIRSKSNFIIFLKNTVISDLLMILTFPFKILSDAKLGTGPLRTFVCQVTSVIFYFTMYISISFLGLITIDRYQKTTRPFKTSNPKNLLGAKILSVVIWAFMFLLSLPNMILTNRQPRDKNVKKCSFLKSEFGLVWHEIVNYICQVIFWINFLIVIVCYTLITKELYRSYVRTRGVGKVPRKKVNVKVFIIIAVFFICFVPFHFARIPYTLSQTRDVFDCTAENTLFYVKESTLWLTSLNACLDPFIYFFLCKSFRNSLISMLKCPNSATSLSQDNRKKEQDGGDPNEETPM

`CNc1cc2c(cc1F)C(=O)N(c1ccc(NC(=O)NS(=O)(=O)c3ccc(Cl)s3)cc1OC)CO2` [Example 15, 1-(5-chlorothiophen-2-ylsulfonyl)-3-(4-(6-fluoro-7-(methylamino)-4-oxo-2H-benzo [e][1,3]oxazin-3(4H)-yl)-3-methoxyphenyl)urea]: the IC50 (in general, the concentration that gives 50% inhibition) was under 0.05 µM in experiment [1] and under 10 µM in experiment [2].

For the compound `CNc1cc2c(cc1F)C(=O)N(c1ccc(NC(=O)NS(=O)(=O)c3ccc(Cl)s3)c(OCCOC)c1)CO2` [Example 28, 1-(5-chlorothiophene-2-ylsulfonyl)-3-(4-(6-fluoro-7-(methylamino)-4-oxo-2H-benzo[e][1,3]oxazin-3(4H)-yl)-2-(2-methoxyethoxy)phenyl)urea], the concentration for half-maximal inhibition (IC50) in experiment [1] is under 0.05 µM; in experiment [2], under 10 µM.

As to `CNc1cc2c(cc1F)C(=O)N(c1ccc(NC(=O)NS(=O)(=O)c3ccc(Cl)s3)c(OCCN(C)C)c1)CO2` [Example 34], the IC50 lay within 0.05 to 0.5 µM in experiment [1] and 10 to 30 µM in experiment [2].
